Patent US8207156B2, “Substituted pyrazoline compounds, their preparation and use as medicaments” (Laboratorios Del Dr. Esteve, S.A., priority 2005, dated 2012)
Structures can show the parent of a compound that is named as a salt.

How the values were obtained:
[1] = target: recombinant human cannabinoid 1 receptor (CB1) (Homo sapiens, UniProt P21554); experiment: In vitro determination of antagonism to CB1-receptor ([35S]GTPγS binding assay, CHO cell membranes); assay type: biochemical; conditions: compound at 1 μM against agonist WIN 55,212-2 (3 nM to 3 μM); effect of Rimonabant (1 μM) defined as 100%
Experimental: Chinese hamster ovary (CHO) cells stably expressing recombinant human cannabinoid 1 receptor (CB1) were cultured in nutrient mixture Ham's F 12 supplemented with 10% heat-inactivated fetal bovine serum, 2 mM L-glutamine, 50 U/ml penicillin, 50 U/ml streptomycin and 0.5 mg/ml geneticin. In order to obtain cells, culture flasks were washed twice with phosphate buffered saline and scraped. Then, cells were collected by centrifugation (200×g, 10 min) and stored dry at −80° C. Cells were homogenized in ice-cold 20 mM HEPES, 10 mM EDTA (pH 7.5) and centrifuged at 40,000×g for 15 min at 4° C. The membrane pellet was resuspended in 20 mM HEPES, 0.1 mM EDTA (pH 7.5) and centrifuged for 15 min at 4° C. The final membrane pellet was resuspended in 20 mM HEPES, 0.1 mM EDTA (pH 7.5), and divided in aliquots and stored at −80° C. until use.
The reaction was performed in 96-well plates. Membranes (15 μg protein/well) were incubated for 60 min at 30° C. in buffer (50 mM HEPES, 100 mM KCl, 5 mM MgCl2,1 mM EDTA, 0.1% wt/vol bovine serum albumin, 5 μM GDP, saponin (10 μg/ml), 0.5 nM [^35S]GTPγS, pH 7.4) with compound at a final concentration of 1 μM in either the absence or presence of agonist WIN 55, 212-2 between 3 nM and 3 μM. The incubation was terminated by rapid filtration through Millipore Multiscreen glass fiber FB, and rinsed two-times with ice-cold assay buffer. Filter plates were dried and 30 μl of scintillation liquid was added. Radioactivity was determined using a Wallac Microbeta Trilux. Each experiment was performed at least in duplicate. A WIN 55, 212-2 dose-response experiment either alone or in the presence of Rimonabant (1 μM) was systematically performed.
The average of basal [^35S]GTPγS binding was subtracted from all binding data. In order to compare the antagonism results from one screening campaign to another one, the difference between the maximal agonist effect of WIN 55, 212-2 alone, and the maximal antagonism effect due to WIN 55, 212-2 plus Rimonabant (1 μM) was defined as 100%.

CB1 receptor [2] = target: T1, CB1 receptor (UniProt P20272); experiment: In-vitro determination of affinity to CB1/CB2-receptors (radioligand [3H]-CP55940 binding); conditions: for Inhibition [%], 10^−7 M: compound at 10^−7 M; for Inhibition [%], 10^−8 M: compound at 10^−8 M
T1 construct: other: compound at 10^−7 M; radioligand [3H]-CP55940; other: compound at 10^−8 M
Experimental: (§1) The in-vitro determination of the affinity of the inventive substituted pyrazoline compounds to CB1/CB2-Rezeptors is carried out as described in the publication of Ruth A. Ross, Heather C. Brockie et al., “Agonist-inverse agonist characterization at CB1 and CB2 cannabinoid receptors of L-759633, L759656 and AM630”, British Journal of Pharmacology, 126, 665-672, (1999), whereby the transfected human CB1 and CB2 receptors of Receptor Biology, Inc. are used. The radioligand used for both receptors is [^3H]-CP55940. The respective parts of the description is hereby incorporated by reference and forms part of the present disclosure.
(§2) Binding affinity to CB1 receptor was evaluated according to a modification of the method described by Govaerts et al., Eur J Pharmac Sci 23, 233-243 (2004). The respective parts of the description is hereby incorporated by reference and forms part of the present disclosure.
(§3) Briefly, cerebellum from male wistar rats (250-300 g) were carefully dissected on ice and homogenates were prepared with Potter-Helveheim in a cold 50 mM Tris-HCl solution containing 5 mM MgCl2, 1 mM EDTA and 0.25 M sucrose, pH 7.4. The suspension was centrifuged at 1,000×g for 5 minutes. The supernatants were collected and centrifuged 50,000×g for 15 minutes. The resulting pellets were then resuspended in Tris-HCl buffer without sucrose, homogenized and incubated for 15 min at 37° C. in an orbital shaker bath and centrifuged again at 50,000×g for 15 min. Pellets were weighted, resuspended in Tris-HCl buffer without sucrose, homogenized with Ultraturrax at 13,500 rpm for 3×5 seconds and alicuoted in 0.9 ml volumes in Eppendorf tubes. Alicuotes were centrifuged at 20,800×g for 5 minutes, supernatants discarded and pellets were frozen at −80° C. until use. Total protein concentration was determined using the Bio-Rad Lowry method based kit. Competitive binding experiments were performed in presence of 1 nM [^3H]-CP 55,940 in siliconized glass tubes containing 100 μg protein/tube resuspended in 1 ml final volume of 50 mM Tris-HCl, 5 mM MgCl2, 1 mM EDTA, 0.5% (w/v) bovine serum albumin, pH 7.4. Compounds were present at various concentrations and the non specific binding was determined in the presence of 10 μM HU-210. After 1 hour incubation at 30° C., the suspension was rapidly filtered through 0.5% PEI pre-treated GF/B fiber filters on a 96-well harvester and washed 3 times with 3 ml ice-cold binding buffer without bovine serum albumin. Radioactivity on filters was measured with Wallac Winspectral 1414 counter by liquid scintillation in 6 ml Ecoscint H (National Diagnostics, U.K.). Assays were made in triplicates.
(§4) Binding data were analyzed by non-linear regression with the software GraphPad Prism Version 3.03.

CB1 receptor [3] = target: T2, CB1 receptor; experiment: as above; conditions: binding data per pharmacological methods part I, table does not say whether human transfected receptor or rat cerebellum
T2 construct: IC50 [nM]; radioligand [3H]-CP55940
Experimental: as §1, §2, §3, §4

Chain of recombinant human cannabinoid 1 receptor (CB1) (P21554 whole entry): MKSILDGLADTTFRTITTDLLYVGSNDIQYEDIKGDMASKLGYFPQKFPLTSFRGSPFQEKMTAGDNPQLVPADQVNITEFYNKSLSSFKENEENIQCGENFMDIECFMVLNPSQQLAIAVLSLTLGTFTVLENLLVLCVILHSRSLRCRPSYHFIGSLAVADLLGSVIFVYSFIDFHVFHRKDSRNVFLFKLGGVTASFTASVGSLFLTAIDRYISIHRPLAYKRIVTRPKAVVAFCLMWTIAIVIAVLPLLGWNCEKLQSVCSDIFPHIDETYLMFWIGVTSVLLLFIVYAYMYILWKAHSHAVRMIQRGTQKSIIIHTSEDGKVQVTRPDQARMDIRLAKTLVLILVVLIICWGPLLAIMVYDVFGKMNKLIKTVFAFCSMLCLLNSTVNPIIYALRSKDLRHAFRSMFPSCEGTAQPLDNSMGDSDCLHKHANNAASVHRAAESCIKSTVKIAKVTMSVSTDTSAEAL

Structure (SMILES) | Antagonism [%] [1] | Inhibition [%], 10^−7 M (CB1 receptor [2]) | Inhibition [%], 10^−8 M (CB1 receptor [2]) | other results
Cl.O=C(NN1CCCC1)C1=NN(c2ccc(Cl)cc2Cl)C(c2ccc(Cl)cc2)C1 (centres unmarked) [Example 194, 5-(4-Chloro-phenyl)-1-(2,4-dichloro-phenyl)-4,5-dihydro-1H-pyrazole-3-carboxylic acid pyrrolidin-1-ylamide hydrochloride] | 82% | 41.7% | 22.9% | –
CCOC(=O)C1=NN(c2ccc(Cl)cc2Cl)C(c2ccc(Cl)cc2)C1 (centres unmarked) [Example 120, 5-(4-Chloro-phenyl)-1-(2,4-dichloro-phenyl)-4,5-dihydro-1H-pyrazole-3-carboxylic acid ethyl ester] | 30% | 7.1% | −4.1% | –
COC(=O)C1=NN(c2ccc(Cl)cc2Cl)C(c2ccc(Cl)cc2)C1 (centres unmarked) [Example 115, 5-(4-Chloro-phenyl)-1-(2,4-dichloro-phenyl)-4,5-dihydro-1H-pyrazole-3-carboxylic acid methyl ester] | 23% | −4.3% | 1.9% | –
O=C(NN1CCCCC1)C1=NN(c2ccc(Cl)cc2Cl)C(c2ccc(Br)cc2)C1 (centres unmarked) [Example 60, 5-(4-Bromo-phenyl)-1-(2,4-dichloro-phenyl)-4,5-dihydro-1H-pyrazole-3-carboxylic acid piperidin-1-ylamide hydrochloride] | – | – | – | IC50 (CB1 receptor [3]; hydrochloride): 0.027 µM
O=C(NN1CCCC1)C1=NN(c2ccc(Cl)cc2Cl)C(c2ccc(Cl)cc2)C1 (centres unmarked) [Example 11, 5-(4-Chloro-phenyl)-1-(2,4-dichloro-phenyl)-4,5-dihydro-1H-pyrazole-3-carboxylic acid pyrrolidin-1-ylamide] | – | – | – | IC50 (CB1 receptor [3]): 0.63 µM
O=C(C1=NN(c2ccc(Cl)cc2Cl)C(c2ccc(Cl)cc2)C1)N1CCN(Cc2ccccc2)CC1 (centres unmarked) [Example 52, (4-Benzyl-piperazin-1-yl)-[5-(4-chloro-phenyl)-1-(2,4-dichloro-phenyl)-4,5-dihydro-1H-pyrazol-3-yl]-methanone] | – | – | – | IC50 (CB1 receptor [3]): 0.251 µM
O=C(NCC1CCCCCC1)C1=NN(c2ccc(Cl)cc2Cl)C(c2ccc(Cl)cc2)C1 (centres unmarked) [Example 191, 5-(4-Chloro-phenyl)-1-(2,4-dichloro-phenyl)-4,5-dihydro-1H-pyrazole-3-carboxylic acid cycloheptylmethyl-amide] | 82% | 67.4% | 30.2% | –
O=C(NC1CCCCCCCCCCC1)C1=NN(c2ccc(Cl)cc2Cl)C(c2ccc(Cl)cc2)C1 (centres unmarked) [Example 49, 5-(4-Chloro-phenyl)-1-(2,4-dichloro-phenyl)-4,5-dihydro-1H-pyrazole-3-carboxylic acid cyclododecylamide] | 14% | – | – | –
O=C(C1=NN(c2ccc(Cl)cc2Cl)C(c2ccc(Cl)cc2)C1)N1Cc2ccccc2C1 (centres unmarked) [Example 39, [5-(4-Chloro-phenyl)-1-(2,4-dichloro-phenyl)-4,5-dihydro-1H-pyrazol-3-yl]-(1,3-dihydro-isoindol-2-yl)-methanone] | 62% | – | – | –
O=C(O)[C@@H]1CCCN1C(=O)C1=NN(c2ccc(Cl)cc2Cl)C(c2ccc(Cl)cc2)C1 (some centres unmarked) [Example 53, 1-[5-(4-Chloro-phenyl)-1-(2,4-dichloro-phenyl)-4,5-dihydro-1H-pyrazole-3-carbonyl]-pyrrolidine-2-carboxylic acid] | 14% | – | – | –
CCOC(=O)N1CCN(C(=O)C2=NN(c3ccc(Cl)cc3Cl)C(c3ccc(Cl)cc3)C2)CC1 (centres unmarked) [Example 44, 4-[5-(4-Chloro-phenyl)-1-(2,4-dichloro-phenyl)-4,5-dihydro-1H-pyrazole-3-carbonyl]-piperazine-1-carboxylic acid ethyl ester] | 39% | – | – | –
O=C(C1=NN(c2ccc(Cl)cc2Cl)C(c2ccc(Cl)cc2)C1)N1CCN(C2CCCCC2)CC1 (centres unmarked) [Example 21, [5-(4-Chloro-phenyl)-1-(2,4-dichloro-phenyl)-4,5-dihydro-1H-pyrazol-3-yl]-(4-cyclohexyl-piperazin-1-yl)-methanone] | 66% | – | – | –
O=C(C1=NN(c2ccc(Cl)cc2Cl)C(c2ccc(Cl)cc2)C1)N1CCc2ccccc2C1 (centres unmarked) [Example 45, [5-(4-Chloro-phenyl)-1-(2,4-dichloro-phenyl)-4,5-dihydro-1H-pyrazol-3-yl]-(3,4-dihydro-1H-isoquinolin-2-yl)-methanone] | 59% | – | – | –
O=C(NN1CCOCC1)C1=NN(c2ccc(Cl)cc2Cl)C(c2ccc(Cl)cc2)C1 (centres unmarked) [Example 8, 5-(4-Chloro-phenyl)-1-(2,4-dichloro-phenyl)-4,5-dihydro-1H-pyrazole-3-carboxylic acid morpholin-4-ylamide] | 54% | 21.9% | −8.2% | –
CN(C(=O)C1=NN(c2ccc(Cl)cc2Cl)C(c2ccc(Cl)cc2)C1)C1CCCCC1 (centres unmarked) [Example 47, 5-(4-Chloro-phenyl)-1-(2,4-dichloro-phenyl)-4,5-dihydro-1H-pyrazole-3-carboxylic acid cyclohexyl-methyl-amide] | 28% | – | – | –
O=C(C1=NN(c2ccc(Cl)cc2Cl)C(c2ccc(Cl)cc2)C1)N1CCCCCCC1 (centres unmarked) [Example 38, Azocan-1-yl-[5-(4-chloro-phenyl)-1-(2,4-dichloro-phenyl)-4,5-dihydro-1H-pyrazol-3-yl]-methanone] | 45% | – | – | –
COC(C)(C)[C@@H]1CCCN1NC(=O)C1=NN(c2ccc(Cl)cc2Cl)C(c2ccc(Cl)cc2)C1 (some centres unmarked) [Example 15, 5-(4-Chloro-phenyl)-1-(2,4-dichloro-phenyl)-4,5-dihydro-1H-pyrazole-3-carboxylic acid [2-(1-methoxy-1-methyl-ethyl)-pyrrolidin-1-yl]-amide] | 6% | – | – | –
CCCCCC(C)NC(=O)C1=NN(c2ccc(Cl)cc2Cl)C(c2ccc(Cl)cc2)C1 (centres unmarked) [Example 35, 5-(4-Chloro-phenyl)-1-(2,4-dichloro-phenyl)-4,5-dihydro-1H-pyrazole-3-carboxylic acid (1-methyl-hexyl)-amide] | 68% | – | – | –
O=C(NC1CCCCC1)C1=NN(c2ccc(Cl)cc2Cl)C(c2ccc(Cl)cc2)C1 (centres unmarked) [Example 41, 5-(4-Chloro-phenyl)-1-(2,4-dichloro-phenyl)-4,5-dihydro-1H-pyrazole-3-carboxylic acid cyclohexylamide] | 69% | 3.4% | −5.2% | –
CC(C)N(C(=O)C1=NN(c2ccc(Cl)cc2Cl)C(c2ccc(Cl)cc2)C1)C1CCCCC1 (centres unmarked) [Example 55, 5-(4-Chloro-phenyl)-1-(2,4-dichloro-phenyl)-4,5-dihydro-1H-pyrazole-3-carboxylic acid cyclohexyl-isopropyl-amide] | 30% | – | – | –
